This is an account of results in publication PMC4280898, “Diazido Mixed-Amine Platinum(IV) Anticancer Complexes Activatable by Visible-Light Form Novel DNA Adducts” (Chemistry (Weinheim an Der Bergstrasse, Germany), 2013).

Assay [1] concerns A2780cis cells. Particulars: cited from earlier work; for Resistance factor: A2780cis vs A2780.
Assay [2] relates to A2780 cells. Particulars: cited from earlier work.
The next assay deals with DNA. The arrangement: method as in PMID 1827334. Conditions: ref 3a; cited from earlier work.
The subject of assay [3] is A2780 cells. Description: Constant challenge proliferation (MTT) assay, A2780. Particulars: conventional constant challenge proliferation assay. The format is cell-based, human. From the text: (§1) It should be noted that the phototoxicity assay is not a proliferation assay.
For the next assay, the system named is pSP73KB plasmid DNA. Particulars: in the dark; ref 32b; cited from earlier work.
The target in assay [4] is T1, HMGB1 protein (Homo sapiens, UniProt P09429).
T1 sequence (P09429 1-215): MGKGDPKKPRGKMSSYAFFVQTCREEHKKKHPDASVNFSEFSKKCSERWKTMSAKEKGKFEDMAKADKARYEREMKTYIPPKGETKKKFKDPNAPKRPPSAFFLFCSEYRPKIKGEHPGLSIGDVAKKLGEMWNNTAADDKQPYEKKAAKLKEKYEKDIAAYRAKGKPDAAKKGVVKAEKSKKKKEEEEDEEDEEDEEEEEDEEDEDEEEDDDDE
Description: HMGB1 recognition of platinated 50 bp duplex, gel mobility shift assay. Conditions: 50 bp duplex modified in the dark. Type of assay: binding. The source says:
HMGB1 protein recognition: The interactions of high mobility group protein B1 (HMGB1) with a 50 bp duplex DNA adducts formed by 1 or 2 under irradiation conditions and 5 or 6 in the dark were investigated using a gel mobility shift assay.
Figure 13 Recognition by HMGB1 protein of platinated DNA. Affinity of full-length HMGB1 to non-modified (control) DNA (lanes 1 and 2) or DNA modified by cisplatin (7) in the dark (lanes 3 and 4), 5 in the dark (lanes 5 and 6), 6 in the dark (lanes 7 and 8), photoactivated 1 (420 nm light, lanes 9 and 10) or photoactivated 2 (420 nm light, lanes 11 and 12). Lanes 1, 3, 5, 7, 9, 11, no protein added; lanes 2, 4, 6, 8, 10, 12, 700 ng HMGB1 added.

Details of assay [5]: method as in earlier work. Particulars: 310 K; cited from earlier work.
Assay [6] has as its system A2780cis cells. In words: Constant challenge proliferation (MTT) assay, A2780cis. Type of assay: cell-based, human. Conditions: conventional constant challenge proliferation assay.
From the text: as §1

The subject of assay [7] is calf thymus DNA. Particulars: in the dark; ref 32b; cited from earlier work.
Assay [8] concerns A2780 cells. Description: SRB proliferation assay for non-light-sensitive complexes, A2780. Type of assay: cell-based, human. Particulars: ambient light, 24 h exposure, 72 h recovery. How it is done: (§2) Cytotoxicity of platinum(II) precursors: To investigate the relationship between the Pt^IV diazidodihydroxido complexes and their Pt^II dichlorido analogues trans-[PtCl2(Am1)(Am2)] (where Am=amine), the cytotoxicities of complexes trans-[PtCl2(MA)(Py)] (5) and trans-[PtCl2(MA)(Tz)] (6) towards A2780 and its cisplatin resistant sub-line A2780cis were determined. The toxicity was not photoinduced, as the complexes are not photoactive. Complexes 5 and 6 are highly cytotoxic towards A2780 and A2780cis cells compared to the reported trans-Pt^II compounds.[18]–[22] Complex 5 is about three-times more cytotoxic than complex 6 towards A2780 cells. […]
(§3) Cell Culture and Proliferation Assay for Non-light-sensitive Complexes
(§4) The A2780 ovarian cell line was obtained from the ECACC (European Collection of Animal Cell Culture, Salisbury, United Kingdom). The cells were maintained in RPMI 1640 media, which was supplemented with 10% foetal calf serum, 1% L-glutamine, and 1% penicillin/streptomycin. All cells were grown at 310 K in an humidified atmosphere containing 5% CO2. Stock solutions of the Pt complexes were freshly prepared in DMSO to assist dissolution and then diluted into saline and medium (maximum final concentration of DMSO 1% and saline 6%). After plating 5000 A2780 cells per well on day 1, Pt complexes were added to the cancer cells on day 3 at concentrations ranging from 0.01 to 100 µM, depending on the preliminary activity data obtained in screening assays. Cells were exposed to the complexes for 24 h, washed with PBS, supplied with fresh medium, and allowed to grow for three doubling times (72 h), and then the protein content (proportional to cell survival) was measured using the sulforhodamine B (SRB) assay.[7] The standard errors are based on two independent experiments of three replicates each.[8]
In general terms: The SRB assay estimates cell density from bound dye.

The subject of assay [9] is calf thymus DNA. Conditions: in the dark; cited from earlier work.
In another assay the test system is pUC19 plasmid DNA. Particulars: in the dark; cited from earlier work.
For assay [10], the system named is 212 bp NdeI–HpaI fragment of pSP73KB DNA. Particulars: in the dark, cited from earlier work.
Assay [11] concerns A2780cis cells. In words: SRB proliferation assay for non-light-sensitive complexes, A2780cis. The format is cell-based, human. How it is done:
as §2, §3, §4

Assay [12] concerns the target T1, HMGB1 protein. Particulars: in the dark; footnote a: taken from literature; cited from earlier work.
Assay [13] concerns 212 bp NdeI–HpaI fragment of pSP73KB DNA. In words: Transcription mapping of DNA adducts (T7 RNA polymerase). The format is biochemical. Particulars: in the dark; rb=0.01. How it is done: Sequence preference of DNA adducts: Transcription mapping experiments were performed to determine the DNA binding sites for Pt complexes. The experiments were carried out using a linear 212 bp DNA fragment (sequence in Figure 9 B), randomly modified by transplatin (8), cisplatin (7), 5 or 6 in the dark or by 1 and 2 photoactivated with blue light (420 nm) at rb=0.01 (rb is defined as the number of the molecules of platinum complex coordinated per nucleotide residue), for RNA synthesis by T7 RNA polymerase (Figure 9 A, lanes 8, 7, 5, 6, 1 and 2, respectively). RNA synthesis on the template modified by the platinum complexes produced fragments of defined sizes (Figure 9 A), which indicate the sites where RNA synthesis was prematurely terminated. It should be noted that RNA synthesis by T7 RNA polymerase is prematurely terminated only due to the platinum adducts on the template strand.[23] […] The ability to bind to A and C sites is consistent with the result from AMP and CMP binding experiments (Figure S18 in the Supporting Information).
Figure 9 Inhibition of RNA synthesis by T7 RNA polymerase on the NdeI–HpaI fragment of pSP73KB plasmid DNA modified by complexes 5 or 6, cisplatin (7) or transplatin (8) in the dark, or with photoactivated 1 or 2 (420 nm light). A) Autoradiogram of a polyacrylamide (6 %)/urea (8 M) sequencing gel. […]
assayed by differential pulse polarography for free, unbound platinum.[16] The amount of platinum bound to DNA was calculated by subtracting the amount of free (unbound) platinum from the total amount of platinum present in the reaction. […]
This fragment contained T7 RNA polymerase promoter (in the upper strand close to its 3'-end). […] The fragments produced in RNA synthesis on the template modified by the platinum complexes were analysed by a 6% polyacrylamide/8M urea sequencing gel.
Quantification of DNA adducts […]
Platinum associated with DNA was assessed by flameless atomic absorption […]
Quantification of DNA interstrand cross-links […]

Like-named read-outs stand apart in the source and are kept apart here. A value given as a limit tells only on which side of the number the result lay.

With `CC(C)[NH2+][Pt-2]([Cl])([Cl])[n+]1ccn(C)c1`, the Resistance factor in the assay with A2780cis cells [1] is reported as 0.66. The figures for the concentration for half-maximal inhibition (IC50) in the assay with A2780cis cells [1] and with A2780 cells [2] were 14 ± 3.5 µM and 21 ± 0.6 µM, respectively.
As to `N.N.[Cl][Pt][Cl]` [Complex 7, cis-[PtCl2(NH3)2]], the “d(ApG) 1,2-intrastrand cross-links, share of all adducts” value with DNA is 20–25%. Also, the “d(GpG) 1,2-intrastrand cross-links, share of all adducts” value in the assay with DNA is listed as 60–65%. Besides, the concentration for half-maximal inhibition (IC50) in the assay with A2780 cells [3] was 500 nM; in the assay on A2780cis cells [6] it was 11 µM; in the assay with A2780 cells [8] it was 1500 ± 300 nM; with A2780cis cells [11] (ambient light, 24 h exposure, 72 h recovery, SRB), 10.5 ± 0.3 µM. The Interstrand cross-link with pSP73KB plasmid DNA is 6[32b] %. Further, the HMGB1 protein recognition result at HMGB1 protein [4] is “strongly bound by HMGB1”. The “Time for binding to 5′-GMP to reach 50 %” value in [5] was 7 to 8 h. The “Bifunctional adducts after 24 h” value with calf thymus DNA [7] was 97–99[32b] %. The “Pt bound after 24 h” value with calf thymus DNA [9] was 100[36] %. Further, the Unwinding angle in the assay with pUC19 plasmid DNA was 13[25] °. In addition, in assay [10] (ref 30c, 37), the Sequence specificity entry is “GG, (GA)[30c], [37]”. Besides, in the assay with A2780cis cells [11] (A2780cis vs A2780, SRB assay), the Resistance factor was found to be 7.0.
As to `N.N.[Cl][Pt+2][Cl]` [Complex 8, transplatin], the Interstrand cross-link in the assay on pSP73KB plasmid DNA was 12[32b] %. Further, the “Bifunctional adducts after 24 h” value in the assay on calf thymus DNA [7] was 50[32b] %. At HMGB1 protein [12], the HMGB1 protein recognition result was “no ^[a]”. For the same compound, the “Pt bound after 24 h” value with calf thymus DNA [9] was 100[36] %. Also, the Unwinding angle in the assay on pUC19 plasmid DNA was 9[25] °. Besides, the Sequence specificity entry in [10] (ref 32b) is “G, C[32b]”; in assay [13], “stop sites mainly at G and C”. Also, the IC50 in the assay on A2780 cells [2] is over 200 µM.
Consider `CCC(C)C[NH][Pt]([Cl])[Cl].N` (stereo not drawn) [trans-[PtCl2(NH3)(2-methyl-butylamine)]], for which, in the assay on A2780cis cells [1], the Resistance factor is on record as 5.5 and the IC50 is 9.3 µM. Besides, the IC50 with A2780 cells [2] was 1.7 µM.
Turning to `Cc1cc[n+]([Pt@SP2-2]([NH3+])([Cl])[Cl])cc1` [trans-[PtCl2(NH3)(4-picoline)]], in the assay on A2780cis cells [1], the Resistance factor was 11 and the half-inhibitory concentration (IC50) was 80 ± 5 µM. In the assay on A2780 cells [2], the half-maximal inhibitory concentration (IC50) was 7 ± 1 µM.
`COC(C)=N.N.[Cl][Pt][Cl]` [trans-[PtCl2(NH3)(HN=C(OCH3)CH3)]]: the Resistance factor in the assay with A2780cis cells [1] is given as 5.4. Further, the values for the IC50 in the assay on A2780cis cells [1] and in the assay on A2780 cells [2] were 7 ± 1.3 µM and 1.3 ± 0.3 µM, respectively.
For `C1CNCCN1.N.[Cl][Pt][Cl]` [trans-[PtCl2(NH3)(piperazine)]], in the assay with A2780cis cells [1], the Resistance factor is on record as 8.8 and the IC50 is 44 ± 2 µM. The IC50 in the assay with A2780 cells [2] was 5 ± 1 µM.
Consider `C1CCNCC1.N.[Cl][Pt][Cl]` [trans-[PtCl2(NH3)(piperidine)]], for which, in the assay on A2780cis cells [1], the Resistance factor is 4.0 and the half-inhibitory concentration (IC50) was 20 ± 2 µM. Moreover, the 50% inhibitory concentration (IC50) in the assay on A2780 cells [2] was 5 ± 0.7 µM.
Consider `CCC(C)N.N.[Cl][Pt][Cl]` (stereo not drawn) [trans-[PtCl2(NH3)(sec-butylamine)]], for which the Resistance factor in the assay on A2780cis cells [1] was 7.4. For the same compound, the IC50 is 15.5 µM in the assay with A2780cis cells [1] and 2.1 µM in the assay with A2780 cells [2].

As a reminder, the IC50 is the concentration that inhibits the measured activity by half.
